pIC50, pKi: −log10 of the molar value.
Legend:
[1] = biological target: T1, Alpha-1A adrenergic receptor (Rattus norvegicus, UniProt P43140); experiment: DRUGMATRIX: Alpha-1A adrenergic receptor radioligand binding (ligand: prazosin); type: cell membranes, Wistar, Submaxillary gland, Membrane; conditions: Not Active = under 50% inhibition at 10 µM
T1 sequence (P43140 whole entry): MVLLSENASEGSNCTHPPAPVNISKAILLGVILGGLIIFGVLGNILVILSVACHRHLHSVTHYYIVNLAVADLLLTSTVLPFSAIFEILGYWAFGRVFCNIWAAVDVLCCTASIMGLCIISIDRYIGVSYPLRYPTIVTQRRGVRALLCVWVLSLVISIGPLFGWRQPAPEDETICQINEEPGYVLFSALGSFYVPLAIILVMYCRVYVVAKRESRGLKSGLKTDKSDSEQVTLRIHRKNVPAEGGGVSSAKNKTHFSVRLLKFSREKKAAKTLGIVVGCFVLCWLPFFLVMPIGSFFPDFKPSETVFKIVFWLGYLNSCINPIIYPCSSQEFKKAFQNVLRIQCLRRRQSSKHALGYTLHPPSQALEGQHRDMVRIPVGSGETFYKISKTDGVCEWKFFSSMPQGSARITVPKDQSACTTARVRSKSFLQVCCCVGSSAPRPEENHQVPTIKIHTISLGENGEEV

[2] = biological target: T2, Alpha-2C adrenergic receptor (Homo sapiens, UniProt P18825); experiment: DRUGMATRIX: Adrenergic Alpha-2C radioligand binding (ligand: [3H] MK-912); type: cell membranes, Sf9, Membrane; conditions: for IC50: sf9
T2 sequence (P18825 whole entry): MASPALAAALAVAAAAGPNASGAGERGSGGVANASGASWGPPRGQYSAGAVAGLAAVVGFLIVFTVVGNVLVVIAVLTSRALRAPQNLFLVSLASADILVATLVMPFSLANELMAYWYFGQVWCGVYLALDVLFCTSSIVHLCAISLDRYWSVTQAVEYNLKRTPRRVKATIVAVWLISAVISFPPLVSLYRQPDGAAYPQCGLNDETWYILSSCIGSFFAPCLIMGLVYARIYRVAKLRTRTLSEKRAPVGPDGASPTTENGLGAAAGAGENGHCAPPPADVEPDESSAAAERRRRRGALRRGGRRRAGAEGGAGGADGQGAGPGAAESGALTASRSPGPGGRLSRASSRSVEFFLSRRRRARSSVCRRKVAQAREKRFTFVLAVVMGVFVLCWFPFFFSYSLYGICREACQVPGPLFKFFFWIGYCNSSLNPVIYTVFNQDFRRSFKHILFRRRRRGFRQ

[3] = DRUGMATRIX: Tumor Necrosis Factor (TNF), Non-Selective radioligand binding (ligand: [125I] TNF-alpha); type: cell membranes, Membrane; conditions: u-937; Not Active = under 50% inhibition at 10 µM
[4] = biological target: Vasopressin V1a receptor (Homo sapiens, UniProt P37288); type: cell membranes, Membrane; conditions: hek293; note: in other assays of this panel Not Active means under 50% inhibition at 10 µM
[5] = DRUGMATRIX: Leukotriene, BLT (LTB4) radioligand binding (ligand: [3H]LTB4); type: cell membranes, Membrane; conditions: u-937; Not Active = under 50% inhibition at 10 µM
[6] = biological target: T3, Amine oxidase [flavin-containing] A (Homo sapiens, UniProt P21397); experiment: DRUGMATRIX: Monoamine Oxidase MAO-A enzyme inhibition (substrate: Kynuramine); parameters: species or system BTI-TN-5B1-4; conditions: bti-tn-5b1-4; Not Active = under 50% inhibition at 10 µM
T3 sequence (P21397 whole entry): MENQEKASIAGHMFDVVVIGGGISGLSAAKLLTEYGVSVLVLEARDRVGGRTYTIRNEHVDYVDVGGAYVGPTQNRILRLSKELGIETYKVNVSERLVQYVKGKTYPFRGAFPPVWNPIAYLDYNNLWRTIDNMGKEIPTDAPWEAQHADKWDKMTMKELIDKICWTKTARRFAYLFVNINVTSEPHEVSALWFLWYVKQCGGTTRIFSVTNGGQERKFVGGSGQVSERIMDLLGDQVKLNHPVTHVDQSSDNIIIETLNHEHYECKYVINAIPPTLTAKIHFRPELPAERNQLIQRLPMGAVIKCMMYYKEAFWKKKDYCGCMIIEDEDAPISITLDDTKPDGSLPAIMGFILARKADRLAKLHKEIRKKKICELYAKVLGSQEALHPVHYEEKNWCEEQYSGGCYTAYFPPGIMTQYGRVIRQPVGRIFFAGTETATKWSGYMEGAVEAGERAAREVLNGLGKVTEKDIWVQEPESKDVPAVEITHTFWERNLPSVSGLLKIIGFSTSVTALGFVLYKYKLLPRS

[7] = biological target: T4, Adenosine receptor A3 (Homo sapiens, UniProt P0DMS8); type: cell membranes, CHO-K1, Membrane; conditions: cho-k1;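 note: radioligand binding assay with AB-MECA serving as the labeled ligand; in other assays of this panel Not Active means under 50% inhibition at 10 µM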
T4 sequence (P0DMS8 whole entry): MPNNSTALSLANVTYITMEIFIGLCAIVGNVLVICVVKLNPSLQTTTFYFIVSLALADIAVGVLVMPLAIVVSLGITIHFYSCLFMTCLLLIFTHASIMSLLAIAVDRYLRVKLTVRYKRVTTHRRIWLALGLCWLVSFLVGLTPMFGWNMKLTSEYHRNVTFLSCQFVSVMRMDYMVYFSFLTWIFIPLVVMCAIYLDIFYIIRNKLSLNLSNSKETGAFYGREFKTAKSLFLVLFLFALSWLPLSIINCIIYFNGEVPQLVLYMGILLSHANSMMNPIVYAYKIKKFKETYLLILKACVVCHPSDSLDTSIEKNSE

Sequence of Vasopressin V1a receptor (P37288 whole entry): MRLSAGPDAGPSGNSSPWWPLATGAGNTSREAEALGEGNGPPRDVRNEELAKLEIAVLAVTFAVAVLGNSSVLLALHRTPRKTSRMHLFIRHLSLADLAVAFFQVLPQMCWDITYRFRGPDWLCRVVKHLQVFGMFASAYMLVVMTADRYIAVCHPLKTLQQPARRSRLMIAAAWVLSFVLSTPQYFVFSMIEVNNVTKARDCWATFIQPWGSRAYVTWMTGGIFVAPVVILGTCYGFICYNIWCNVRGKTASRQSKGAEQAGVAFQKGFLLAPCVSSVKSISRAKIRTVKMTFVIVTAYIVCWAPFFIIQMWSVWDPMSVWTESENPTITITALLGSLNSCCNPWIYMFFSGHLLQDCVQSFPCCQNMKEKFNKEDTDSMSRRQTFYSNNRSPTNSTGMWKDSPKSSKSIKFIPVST

Row | Compound | IC50 [1] | pIC50 ([2]; read-out: IC50) | pKi ([2]; read-out: Ki) | IC50 [3] | Ki [3] | IC50 [4] | IC50 [5] | Ki [5] | IC50 [6] | IC50 [7] | IC50 [2]
1 | CCc1c2c(nc3ccc(OC(=O)N4CCC(N5CCCCC5)CC4)cc13)-c1cc3c(c(=O)n1C2)COC(=O)[C@]3(O)CC [IRINOTECAN] | Not Active | 5.50 | 6.34 | Not Active | Not Active | Not Active | Not Active | Not Active | Not Active | Not Active | –
2 | CC(C(=O)O)c1cccc(C(=O)c2ccccc2)c1 (stereo not given) [KETOPROFEN] | Not Active | – | – | Not Active | Not Active | Not Active | Not Active | Not Active | Not Active | Not Active | Not Active
3 | Nc1ccn([C@@H]2CS[C@H](CO)O2)c(=O)n1 [LAMIVUDINE] | Not Active | – | – | Not Active | Not Active | Not Active | Not Active | Not Active | Not Active | Not Active | Not Active
4 | O=S(=O)([O-])CCS.[Na+] [MESNA] | Not Active | – | – | Not Active | Not Active | Not Active | Not Active | Not Active | Not Active | Not Active | Not Active
5 | C#C[C@]1(O)CC[C@H]2[C@@H]3CCc4cc(OC)ccc4[C@H]3CC[C@@]21C [MESTRANOL] | Not Active | – | – | Not Active | Not Active | Not Active | Not Active | Not Active | Not Active | Not Active | Not Active
6 | CC(=O)Nc1cccc(O)c1 [METACETAMOL] | Not Active | – | – | Not Active | Not Active | Not Active | Not Active | Not Active | Not Active | Not Active | Not Active
7 | Cc1ncc([N+](=O)[O-])n1CCO [METRONIDAZOLE] | Not Active | – | – | Not Active | Not Active | Not Active | Not Active | Not Active | Not Active | Not Active | Not Active
8 | CC(C)(C(=O)c1cccnc1)c1cccnc1 [METYRAPONE] | Not Active | – | – | Not Active | Not Active | Not Active | Not Active | Not Active | Not Active | Not Active | Not Active
9 | Oc1ccc(OCc2ccccc2)cc1 [MONOBENZONE] | Not Active | – | – | Not Active | Not Active | Not Active | Not Active | Not Active | Not Active | Not Active | Not Active
10 | CC(C)(Oc1ccc(C2CCCc3ccccc32)cc1)C(=O)O (stereo not given) [NAFENOPIN] | Not Active | – | – | Not Active | Not Active | Not Active | Not Active | Not Active | Not Active | Not Active | Not Active
11 | COc1ccc2cc([C@H](C)C(=O)O)ccc2c1 [NAPROXEN] | Not Active | – | – | Not Active | Not Active | Not Active | Not Active | Not Active | Not Active | Not Active | Not Active

From ChEMBL document CHEMBL1909046, “DrugMatrix in vitro pharmacology data”
